Data: US6541468B1, “Indolocarbazole derivatives useful for the treatment of neurodegenerative diseases and cancer” (Bayer Corporation, priority 1998, dated 2003)

Biological target: T1, PK40 (ERK2) (Homo sapiens, UniProt P28482)
T1 construct: made in house; host or cells: E. coli BL21 pLysS (printed 'B121pLysS'), pET-14b vector
Assay: PK40(ERK2) kinase inhibition assay
Format: biochemical
Details: 0.25 mM ATP, myelin basic protein substrate
Procedure: Preparation of ERK2: Recombinant human ERK2 with a N-terminal histidine (his) tag was prepared as follows: An ERK2 cDNA clone was amplified from a human frontal cortex library by PCR with primers matching the published human sequence [Gonzales F. A. et al, FEBS Lett. 304, 170-178 (1992)]. The histidine tag was introduced by site-directed mutagenesis. The cDNA was cloned into a pET-14b (Novagen) vector and transfected into the E. coli lysogen strain B121pLysS. Single colony transformants were grown in LB medium containing […] chloramphenicol to maintain pLysS and […] to an O.D.600 OF 0.6. The culture was then induced with 0.4 mM IPTG for 4 hours. The expressed ERK2 protein was then analyzed on a 10% SDS PAGE by both coomassie blue staining and anti-ERK Western blotting. […]
Enzyme, substrate and inhibitor were preincubated for 5-10 min at 4° C. in assay buffers containing a final concentration of 2% DMSO before initiating the reaction with 0.25 mM γ^2P-ATP. […] The filtermats were washed twice for several hours with TCA/PPA until all background radioactivity was removed. Precipitable counts were quantitated directly on the filtermat with a microbeta scintillation counter system (Wallac-Pharmacia). Inhibitor data were subjected to curve fitting and IC50 values were calculated from these curves using the GraphIt program.

T1 sequence (P28482 whole entry): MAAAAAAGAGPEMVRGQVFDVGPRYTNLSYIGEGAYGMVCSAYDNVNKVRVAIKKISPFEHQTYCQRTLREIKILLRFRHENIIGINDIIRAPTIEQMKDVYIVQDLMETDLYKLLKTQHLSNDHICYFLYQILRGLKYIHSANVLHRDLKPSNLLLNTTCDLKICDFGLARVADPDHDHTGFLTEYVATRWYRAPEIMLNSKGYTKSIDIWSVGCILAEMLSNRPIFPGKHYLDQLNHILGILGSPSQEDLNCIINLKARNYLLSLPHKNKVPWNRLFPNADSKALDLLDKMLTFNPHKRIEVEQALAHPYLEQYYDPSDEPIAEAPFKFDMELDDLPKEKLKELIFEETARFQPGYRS

SMILES | IC50 [nM]
CNC(=O)[C@]1(O)CC2CC1n1c3ccccc3c3c4c(c5c6ccccc6n2c5c31)C(=O)NC4=O (stereo partly drawn) [CII, 9,12-Methano-1H-diindolo[1,2,3-fg:3′,2′,1′-kl]pyrrolo[3,4-I][1,6] benzodiazocine-10-carboxamide, 2,3,9,10,11,12-hexahydro-10-hydroxy-N-methyl-1,3-dioxo-(9α,10β,12α)] | 44
COC(=O)[C@@]1(O)C[C@H]2C[C@@H]1n1c3ccccc3c3c4c(c5c6ccccc6n2c5c31)C(=O)NC4=O (relative stereo) [CIII, 9,12-Methano-1H-diindolo[1,2,3-fg:3′,2′,1′-kl]pyrrolo[3,4-I][1,6] benzodiazocine-10-carboxylic acid, 2,3,9,10,11,12-hexahydro-10-hydroxy-1,3-dioxomethyl ester, (9α,10β,12α)] | > 30000
